This note sets out measurements from patent US20160002248A1, “GLS1 INHIBITORS FOR TREATING DISEASE” (Board of Regents, The University of Texas System, priority 2014, published 2016).

In one experiment the test system is A549 cells. As to the kind of experiment: Proliferation Assay (A549 cell viability, Cell Titer Fluor). Type of experiment: cell-based. The settings on record: Homo sapiens, 72 hours. The protocol:
A549 cells were routinely maintained in RPMI 1640 media (Gibco catalog number 11875-093) supplemented with 10% dialyzed fetal bovine serum using a humidified incubator (37° C., 5% CO2 and ambient O2). In preparation for the viability assay, cells were inoculated into 384-well black CulturPlates (Perkin Elmer) at a density of 1000 cells/well in a volume of 40 uL. Following a 24-hour incubation at 37° C., 5% CO2 and ambient O2, cells were treated with compound (10 uL) in a final DMSO concentration of 0.5% (v/v). The microplates were then incubated for 72 hours (37° C., 5% CO2 and ambient O2). Cell Titer Fluor (Promega) was subsequently added (10 uL of 6× reagent) and mixed for 15 minutes at room temperature. The plates were then incubated for 30 minutes (37° C., 5% CO2 and ambient O2) and fluorescence was subsequently read on the Perkin Elmer Envision plate reader. EC50 values were calculated using a four-parameter logistic curve fit.

Experiment [1] deals with T1, purified recombinant human GAC (GLS1) (Homo sapiens, UniProt O94925).
T1 sequence (O94925 55-598 isoform O94925-3 limits assumed): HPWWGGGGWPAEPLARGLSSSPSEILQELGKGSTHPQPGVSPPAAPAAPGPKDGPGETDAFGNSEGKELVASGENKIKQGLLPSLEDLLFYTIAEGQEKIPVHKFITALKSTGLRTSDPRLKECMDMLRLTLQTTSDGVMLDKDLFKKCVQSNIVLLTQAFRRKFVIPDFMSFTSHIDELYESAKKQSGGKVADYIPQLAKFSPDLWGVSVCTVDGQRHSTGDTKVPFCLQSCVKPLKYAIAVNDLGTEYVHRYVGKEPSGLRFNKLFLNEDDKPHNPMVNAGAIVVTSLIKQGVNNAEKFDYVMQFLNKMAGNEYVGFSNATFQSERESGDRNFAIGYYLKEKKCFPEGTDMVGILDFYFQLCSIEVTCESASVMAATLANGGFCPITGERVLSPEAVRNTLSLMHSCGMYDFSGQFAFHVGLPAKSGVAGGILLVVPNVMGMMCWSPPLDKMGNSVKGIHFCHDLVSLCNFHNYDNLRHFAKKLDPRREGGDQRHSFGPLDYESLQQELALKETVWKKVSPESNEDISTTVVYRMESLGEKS
As to the kind of experiment: GLS1 Enzymatic Activity Assay (dual-coupled enzymatic assay). Format: biochemical. The protocol: GLS1 Enzymatic Activity Assay
The inhibition of purified recombinant human GAC by varying concentrations of inhibitors is assessed via a dual-coupled enzymatic assay. The glutamate produced by the glutaminase reaction is used by glutamate oxidase to produce α-ketoglutarate, ammonia, and hydrogen peroxide, with this hydrogen peroxide subsequently being used by horseradish peroxidase to produce resorufin in the presence of Amplex UltraRed. The assay buffer consisted of 50 mM Hepes (pH 7.4), 0.25 mM EDTA and 0.1 mM Triton X-100. GAC was incubated with potassium phosphate (10 minutes at room temperature) prior to incubation with inhibitor (10 minutes at room temperature). The final reaction conditions were as follows: 2 nM GAC, 50 mM potassium phosphate, 100 mU/mL glutamate oxidase (Sigma), 1 mM glutamine (Sigma), 100 mU/mL horseradish peroxidase (Sigma), 75 μM Amplex UltraRed (Life Technologies), and 1% (v/v) DMSO. The production of resorufin was monitored on a Perkin Elmer Envision plate reader (excitation 530 nm, emission 590 nm) either in a kinetics or endpoint mode (at 20 minutes). IC50 values were calculated using a four-parameter logistic curve fit.

In the case of `CC(C)(C)c1cc2cc(CCCCn3ccc(NC(=O)Cc4ccccc4)cc3=O)nnc2[nH]1` [Example 30, N-[1-(4-{6-tert-butyl-7H-pynolo[2,3-c]pyridazin-3-yl}butyl)-2-oxo-1,2-dihydropyridin-4-yl]-2-phenylacetamide], the EC50 (as a rule, the midpoint of the concentration-response curve) in the experiment with A549 cells was 500 to 5000 nM. In addition, in experiment [1], the IC50 – broadly, the concentration that gives 50% inhibition – is 100 to 500 nM.
On the same counts, the results for `O=C(NCc1cccc(OC(F)(F)F)c1)c1cn(CCCCc2cc3cc(C4CC4)[nH]c3nn2)nn1` [Example 32, 1-(4-{6-cyclopropyl-7H-pyrrolo[2,3-c]pyridazin-3-yl}butyl)-N-{[3-(trifluoromethoxy)phenyl]methyl}-1H-1,2,3-triazole-4-carboxamide] are 100 to 500 nM and under 100 nM.
`COc1cccc(CNC(=O)c2cn(CCCCc3cc4cc(C5CC5)[nH]c4nn3)nn2)n1` [Example 33, 1-(4-{6-cyclopropyl-7H-pyrrolo[2,3-c]pyridazin-3-yl}butyl)-N-[(6-methoxypyridin-2-yl)methyl]-1H-1,2,3-triazole-4-carboxamide] returned an EC50 in the experiment with A549 cells of 500 to 5000 nM. The IC50 in experiment [1] is 100 to 500 nM.
On the same counts, the results for `O=C(NCc1ccccn1)c1cn(CCCCc2cc3cc(Cc4ccccc4)[nH]c3nn2)nn1` [Example 34, 1-(4-{6-benzyl-7H-pyrrolo[2,3-c]pyridazin-3-yl}butyl)-N-(pyridin-2-ylmethyl)-1H-1,2,3-triazole-4-carboxamide] are 500 to 5000 nM and under 100 nM.
On the same counts, the results for `Cc1ccc(CNC(=O)c2cn(CCCCc3cc4cc(C5CC5)[nH]c4nn3)nn2)cn1` [Example 35, 1-(4-{6-cyclopropyl-7H-pyrrolo[2,3-c]pyridazin-3-yl}butyl)-N-[(6-methylpyridin-3-yl)methyl]-1H-1,2,3-triazole-4-carboxamide] are 100 to 500 nM and under 100 nM.
On the same counts, the results for `O=C(NCc1cccnc1)c1cn(CCCCc2cc3cc(C4CC4)[nH]c3nn2)nn1` [Example 36, 1-(4-{6-cyclopropyl-7H-pyrrolo[2,3-c]pyridazin-3-yl}butyl)-N-(pyridin-3-ylmethyl)-1H-1,2,3-triazole-4-carboxamide] are 100 to 500 nM and 100 to 500 nM.
Regarding `O=C(NCc1ccncc1)c1cn(CCCCc2cc3cc(C4CC4)[nH]c3nn2)nn1` [Example 37, 1-(4-{6-cyclopropyl-7H-pyrrolo[2,3-c]pyridazin-3-yl}butyl)-N-(pyridin-4-ylmethyl)-1H-1,2,3-triazole-4-carboxamide], in the experiment on A549 cells, the EC50 was in the range of 500 to 5000 nM. For the same molecule, the IC50 in experiment [1] was in the range of 100 to 500 nM.
In the same order, the values of `O=C(NCc1ncccn1)c1cn(CCCCc2cc3cc(C4CC4)[nH]c3nn2)nn1` [Example 38, 1-(4-{6-cyclopropyl-7H-pyrrolo[2,3-c]pyridazin-3-yl}butyl)-N-(pyrimidin-2-ylmethyl)-1H-1,2,3-triazole-4-carboxamide] are 500 to 5000 nM and 500 to 5000 nM.
On the same counts, the results for `COc1ccnc(CNC(=O)c2cn(CCCCc3cc4cc(C5CC5)[nH]c4nn3)nn2)c1` [Example 39, 1-(4-{6-cyclopropyl-7H-pyrrolo[2,3-c]pyridazin-3-yl}butyl)-N-[(4-methoxypyridin-2-yl)methyl]-1H-1,2,3-triazole-4-carboxamide] are 100 to 500 nM and 100 to 500 nM.
Consider `O=C(NCc1ccc(C(F)(F)F)nc1)c1cn(CCCCc2cc3cc(C4CC4)[nH]c3nn2)nn1` [Example 40, 1-(4-{6-cyclopropyl-7H-pyrrolo[2,3-c]pyridazin-3-yl}butyl)-N-{[6-(trifluoromethyl)pyridin-3-yl]methyl}-1H-1,2,3-triazole-4-carboxamide], for which the concentration for a half-maximal effect (EC50) with A549 cells was in the range of 500 to 5000 nM. Also, the IC50 in experiment [1] was under 100 nM.
Regarding `O=C(NCc1ccc(Cl)nc1)c1cn(CCCCc2cc3cc(C4CC4)[nH]c3nn2)nn1` [Example 41, N-[(6-chloropyridin-3-yl)methyl]-1-(4-{6-cyclopropyl-7H-pyrrolo[2,3-c]pyridazin-3-yl}butyl)-1H-1,2,3-triazole-4-carboxamide], the EC50 in the experiment with A549 cells lay in the range of 500 to 5000 nM. In experiment [1], the IC50 was 100 to 500 nM.
In the same order, the values of `COc1ccc(CNC(=O)c2cn(CCCCc3cc4cc(C5CC5)[nH]c4nn3)nn2)cn1` [Example 42, 1-(4-{6-cyclopropyl-7H-pyrrolo[2,3-c]pyridazin-3-yl}butyl)-N-[(6-methoxypyridin-3-yl)methyl]-1H-1,2,3-triazole-4-carboxamide] are 500 to 5000 nM and under 100 nM.
Regarding `O=C(NCc1cccc(OCC(F)(F)F)n1)c1cn(CCCCc2cc3cc(C4CC4)[nH]c3nn2)nn1` [Example 43, 1-(4-{6-cyclopropyl-7H-pyrrolo[2,3-c]pyridazin-3-yl}butyl)-N-{[6-(2,2,2-trifluoroethoxy)pyridin-2-yl]methyl}-1H-1,2,3-triazole-4-carboxamide], the EC50 in the experiment with A549 cells was 500 to 5000 nM. Also, the IC50 in experiment [1] was under 100 nM.
As for `COc1cc(CNC(=O)c2cn(CCCCc3cc4cc(C5CC5)[nH]c4nn3)nn2)ccn1` [Example 44, 1-(4-{6-cyclopropyl-7H-pyrrolo[2,3-c]pyridazin-3-yl}butyl)-N-[(2-methoxypyridin-4-yl)methyl]-1H-1,2,3-triazole-4-carboxamide], the EC50 with A549 cells lay in the range of 500 to 5000 nM. Further, the IC50 in experiment [1] is 100 to 500 nM.
Take `Cn1cnc(CNC(=O)c2cn(CCCCc3cc4cc(C5CC5)[nH]c4nn3)nn2)c1` [Example 45, 1-(4-{6-cyclopropyl-7H-pyrrolo[2,3-c]pyridazin-3-yl}butyl)-N-[(1-methyl-1H-imidazol-4-yl)methyl]-1H-1,2,3-triazole-4-carboxamide]: in the experiment with A549 cells, the EC50 lay within 500 to 5000 nM. Besides, the IC50 in experiment [1] lay in the range of 100 to 500 nM.
In the experiment with A549 cells, `Cc1cncc(CNC(=O)c2cn(CCCCc3cc4cc(C5CC5)[nH]c4nn3)nn2)c1` [Example 46, 1-(4-{6-cyclopropyl-7H-pyrrolo[2,3-c]pyridazin-3-yl}butyl)-N-[(5-methylpyridin-3-yl)methyl]-1H-1,2,3-triazole-4-carboxamide] gave an EC50 of 500 to 5000 nM. In addition, the half-maximal inhibitory concentration (IC50) in experiment [1] was under 100 nM.
With `Cc1ccncc1CNC(=O)c1cn(CCCCc2cc3cc(C4CC4)[nH]c3nn2)nn1` [Example 47, 1-(4-{6-cyclopropyl-7H-pyrrolo[2,3-c]pyridazin-3-yl}butyl)-N-[(4-methylpyridin-3-yl)methyl]-1H-1,2,3-triazole-4-carboxamide], the EC50 in the experiment on A549 cells was in the range of 500 to 5000 nM. Besides, the IC50 in experiment [1] lay in the range of 100 to 500 nM.
On the same counts, the results for `COc1cncc(CNC(=O)c2cn(CCCCc3cc4cc(C5CC5)[nH]c4nn3)nn2)c1` [Example 48, 1-(4-{6-cyclopropyl-7H-pyrrolo[2,3-c]pyridazin-3-yl}butyl)-N-[(5-methoxypyridin-3-yl)methyl]-1H-1,2,3-triazole-4-carboxamide] are 500 to 5000 nM and under 100 nM.
As to `COc1ncccc1CNC(=O)c1cn(CCCCc2cc3cc(C4CC4)[nH]c3nn2)nn1` [Example 49, 1-(4-{6-cyclopropyl-7H-pyrrolo[2,3-c]pyridazin-3-yl}butyl)-N-[(2-methoxypyridin-3-yl)methyl]-1H-1,2,3-triazole-4-carboxamide], in the experiment with A549 cells, the EC50 lay within 500 to 5000 nM. The IC50 in experiment [1] was 500 to 5000 nM.
For the molecule `Cc1cc(CNC(=O)c2cn(CCCCc3cc4cc(C5CC5)[nH]c4nn3)nn2)nn1C` [Example 50, 1-(4-{6-cyclopropyl-7H-pyrrolo[2,3-c]pyridazin-3-yl}butyl)-N-[(1,5-dimethyl-1H-pyrazol-3-yl)methyl]-1H-1,2,3-triazole-4-carboxamide], the EC50 with A549 cells was in the range of 500 to 5000 nM. For the same molecule, the IC50 in experiment [1] is 100 to 500 nM.
In the same order, the values of `Cn1cc(CNC(=O)c2cn(CCCCc3cc4cc(C5CC5)[nH]c4nn3)nn2)cn1` [Example 51, 1-(4-{6-cyclopropyl-7H-pyrrolo[2,3-c]pyridazin-3-yl}butyl)-N-[(1-methyl-1H-pyrazol-4-yl)methyl]-1H-1,2,3-triazole-4-carboxamide] are 500 to 5000 nM and 100 to 500 nM.
